Entries after “also recorded” stand apart in the source; their conditions may differ.
What was measured:
[1] = tested on: normal dermal fibroblasts; assay: Collagen fiber deposition (immuno-staining of collagen type I, morphometry); format: cell-based, human; conditions: 100 μM, 24-hour-old cultures, 5% FBS
Experimental: Cell Cultures—Fibroblasts initially grew out from the explants of these full thickness skin biopsies and were maintained. The primary cultures of fat-derived fibroblasts obtained from Thermogenesis (Rancho Cordova, Calif.) were also tested. In all described experiments, 2-4 passages of both kinds of fibroblasts were used. In experiments aimed at assessing ECM production, cells were initially plated at a concentration of 100,000 cells/dish. Confluent cultures were then maintained either in serum-free medium (DMEM) or in medium supplemented with 5% FBS in the presence of different reagents that were added 1 hour before treatments with SA.
Immuno-staining—All cultures maintained in the presence and absence of indicated reagents were either fixed in cold 100% methanol at −20° C. (for detection of elastin) or in 4% paraformaldehyde at room temperature (for detection of collagen I). The multiple parallel cultures were then incubated with 10 μg/ml of polyclonal antibody to tropoelastin (Elastin Products, Owensville, Mich.), or polyclonal antibody to collagen type I (Chemicon, Temecula, Calif.). Cultures were then incubated with the respective fluorescein-conjugated goat anti-rabbit, goat anti-mouse, or rabbit anti-goat secondary antibodies. Nuclei were counterstained with propidium iodide (Sigma, Sigma, St. Louis, Mo.). All of the cultures were then examined with a Nikon Eclipse E1000 microscope attached to a cooled CCD camera (QImaging, Retiga EX) and analyzed by the computer-generated morphometric analysis system (Image-Pro Plus software, Media Cybernetics, Silver Springs, Md.) as previously described.

[2] = tested on: fat tissue-derived fibroblasts; assay: Elastin deposition (immuno-staining morphometry, insoluble elastin assay) in fat-derived fibroblasts; format: cell-based, human; conditions: 50-200 μM, on average, p<0.01
Experimental: Cell Cultures-Fibroblasts initially grew out from the explants of these full thickness skin biopsies and were maintained. The primary cultures of fat-derived fibroblasts obtained from Thermogenesis (Rancho Cordova, Calif.) were also tested. In all described experiments, 2-4 passages of both kinds of fibroblasts were used. In experiments aimed at assessing ECM production, cells were initially plated at a concentration of 100,000 cells/dish. […] Immuno-staining-All cultures maintained in the presence and absence of indicated reagents were either fixed in cold 100% methanol at -20° C. (for detection of elastin) or in 4% paraformaldehyde at room temperature (for detection of collagen I). The multiple parallel cultures were then incubated with 10 μg/ml of polyclonal antibody to tropoelastin (Elastin Products, Owensville, Mich.), or polyclonal antibody to collagen type I (Chemicon, Temecula, Calif.). […] All of the cultures were then examined with a Nikon Eclipse […] microscope attached to a cooled CCD camera (QImaging, Retiga EX) and analyzed by the computer-generated morphometric analysis system (Image-Pro Plus software, Media Cybernetics, Silver Springs, Md.) as previously described. Quantitative Assays of Insoluble Elastin-Fibroblasts were grown to confluency in 35-mm culture dishes (100,000 cells/dish). […]

[3] = tested on: insulin receptor; assay: Insulin receptor phosphorylation (immuno-precipitation, anti-phospho-tyrosine Western blot); format: cell-based, human; conditions: 100 μM SA, basic or insulin-induced
Experimental: (§1) At the end of each experiment cells were submerged in the lysis buffer containing a broad-range phosphatase inhibitor. The polyclonal antibodies recognizing either the β subunits of the IGF-IR or the β subunit of the insulin receptor were immobilized on separate sets of the IgG-bearing magnetic beads (Invitrogen Canada Inc, Burlington, ON) and then incubated for 1 hour with the aliquots of the cell lysates containing 400 μg of protein as described in the manufacturer protocol. The beads bearing the resulting immuno-precipitation products were re-suspended in sample buffer and the released proteins were resolved with SDS-PAGE and subjected to Western blotting with a monoclonal anti-p-Tyr (PY99) antibody from Santa Cruz Biotechnology Inc. (Santa Cruz, Calif.) and then with HRP-conjugated goat anti-mouse secondary antibody.

[4] = tested on: intracellular tropoelastin; assay: Western blot of intracellular tropoelastin; format: cell-based, human; conditions: 50-200 μM, 20-hour-old cultures, 5% FBS
Experimental: Western Blots—At the end of indicated experiments, cells were lysed with NP-40 buffer containing a cocktail of broad spectrum inhibitors of proteinases and phosphatases. The 50 μg aliquots of protein extract were then resolved by SDS-PAGE gel (4-12% gradient) in reducing conditions and analyzed by Western blot with antibodies indicated in figure legends, as previously described. Initial blots were also re-probed with monoclonal anti-β-actin antibody (Cell Signaling Technology Inc., Danvers, Mass.) to confirm the equal protein loading. The degree of expression was measured by densitometry.

[5] = molecular target: T1, IGF-1 receptor (Homo sapiens, UniProt P08069); assay: IGF-1R phosphorylation (immuno-precipitation, anti-phospho-tyrosine Western blot); format: cell-based; conditions: for levels of IGF-1R phosphorylation: 100 μM SA alone
T1 construct: immuno-precipitated with antibody to β subunit of IGF-1R and detected by Western blotting with anti-phospho-tyrosine antibody; endogenous in cells; host or cells: cultured dermal fibroblasts
T1 sequence (P08069 741-1367 limits assumed): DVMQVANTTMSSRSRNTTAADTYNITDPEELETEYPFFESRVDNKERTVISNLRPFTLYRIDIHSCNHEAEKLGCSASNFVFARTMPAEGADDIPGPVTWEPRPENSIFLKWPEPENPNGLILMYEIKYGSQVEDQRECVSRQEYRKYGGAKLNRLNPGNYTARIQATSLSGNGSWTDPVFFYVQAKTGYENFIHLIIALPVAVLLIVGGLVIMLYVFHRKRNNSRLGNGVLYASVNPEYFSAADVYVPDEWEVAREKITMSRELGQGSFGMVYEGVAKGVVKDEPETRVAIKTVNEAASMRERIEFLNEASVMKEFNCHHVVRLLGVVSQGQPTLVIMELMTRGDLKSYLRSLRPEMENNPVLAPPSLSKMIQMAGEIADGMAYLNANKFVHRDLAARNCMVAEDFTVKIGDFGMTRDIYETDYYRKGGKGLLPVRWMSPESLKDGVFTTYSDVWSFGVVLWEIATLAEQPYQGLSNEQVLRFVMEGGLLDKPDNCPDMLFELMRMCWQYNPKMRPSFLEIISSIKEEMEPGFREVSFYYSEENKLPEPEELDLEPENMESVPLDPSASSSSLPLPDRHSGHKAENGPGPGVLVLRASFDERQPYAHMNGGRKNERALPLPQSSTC
T1 sequence (P08069 31-736 partner limits assumed): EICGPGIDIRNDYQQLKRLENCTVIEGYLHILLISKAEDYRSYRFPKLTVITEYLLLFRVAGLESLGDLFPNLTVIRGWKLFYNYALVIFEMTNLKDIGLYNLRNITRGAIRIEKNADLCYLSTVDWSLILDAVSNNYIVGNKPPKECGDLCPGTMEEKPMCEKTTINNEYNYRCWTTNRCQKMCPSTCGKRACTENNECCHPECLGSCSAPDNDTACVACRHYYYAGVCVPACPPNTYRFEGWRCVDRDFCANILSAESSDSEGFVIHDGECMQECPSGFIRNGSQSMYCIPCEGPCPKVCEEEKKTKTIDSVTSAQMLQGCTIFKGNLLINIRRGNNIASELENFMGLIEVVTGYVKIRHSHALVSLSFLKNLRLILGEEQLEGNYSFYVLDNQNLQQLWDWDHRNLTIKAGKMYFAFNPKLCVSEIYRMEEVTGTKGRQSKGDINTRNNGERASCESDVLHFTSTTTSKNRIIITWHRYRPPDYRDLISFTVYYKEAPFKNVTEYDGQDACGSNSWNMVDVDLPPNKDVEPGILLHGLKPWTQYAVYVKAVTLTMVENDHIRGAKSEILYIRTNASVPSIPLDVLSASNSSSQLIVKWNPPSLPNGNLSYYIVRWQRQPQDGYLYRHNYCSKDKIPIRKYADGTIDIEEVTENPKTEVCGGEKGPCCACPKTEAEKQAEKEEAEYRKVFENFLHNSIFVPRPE
Experimental: as §1

[6] = tested on: explants of dermal stretch marks; assay: Organ culture of skin explants (Movat pentachrome morphometry, insoluble elastin); format: cell-based, human; conditions: 200 μM, 10-day-long daily treatment
Experimental: The parallel quadruplicate explants from each experimental group were additionally maintained in the presence 2 μCi of [3H]-valine/ml and then subjected to the assay of insoluble elastin. The parallel explants from each experimental groups were also evaluated after pentachrome Movat's staining which allows for clear marking of elastic fibers. In each experimental group, 50 sections derived from quadruplicate explants were analyzed.

For `O=C1O[C@H]([C@@H](O)CO)C([O-])=C1O.[Na+]` [SA, (+)-sodium L-ascorbate], the “deposition of immuno-detected collagen fibers” value [1] was “more potent up-regulation in the deposition of immuno-detected collagen fibers than 100 μM AA; also recorded: more potent upregulation in collagen fibers deposition than 100 μM AA”, the “increase in elastin deposition” value [2] was 22%+/−4% and the “phosphorylation of insulin receptor” value [3] was “did not induce heightened phosphorylation; also recorded: does not enhance basic or insulin-induced phosphorylation of insulin receptor”. For the same molecule, the “levels of newly synthesized tropoelastin” value [4] was “increase in the levels of newly synthesized tropoelastin”, the “levels of IGF-1R phosphorylation” value ([5]; medium with FBS) was “remarkably enhanced levels of IGF-1R phosphorylation; also recorded: enhances the level of phosphorylation of the IGF-1R” and the “levels of IGF-1R phosphorylation” value ([5]; serum-free medium) was “did not reveal any increase in IGF-1R phosphorylation”. The “levels of IGF-1-induced IGF-1R phosphorylation” value ([5]; 100 μM SA plus 50 ng/ml IGF-1, both tested media) was “significantly enhanced the levels of phosphorylated IGF-IR; also recorded: enhances levels of IGF-1-induced IGF-IR phosphorylation in both tested media” and the elastogenesis [6] was “restored the practically non-existent elastogenesis”.

— patent US20130184337A1, “SODIUM ASCORBATE STIMULATION OF ELASTOGENESIS” (THE HOSPITAL FOR SICK CHILDREN, priority 2012, published 2013)
